From patent US20140303090A1, “Smac Mimetic Therapy” (TETRALOGIC PHARMACEUTICALS CORPORATION, priority 2013, published 2014)
Where two headings read alike, the source gives them in different places. Blank lines part the entries; values can stand above or below the compound they belong to.

Experiments:
[1] = system: DAP-mediated NF-κB-luc (NOD1); assay: DAP-stimulated NF-kB luciferase reporter gene assay (NOD1 signaling) in HCT116 cells; assay type: cell-based, human; details: for Inhibition of DAP-mediated NF-κB-luc, % Inhibition: 10 μM Smac mimetic, HCT116 cells
Protocol: (§1) To assay effects on XIAP E3 ubiquitin ligase activity manifested as NF-kB activation, we established both DAP- and MDP-stimulated luciferase reporter gene assays in which Smac mimetics are evaluated in cells at a single 10 μM drug concentration. Specifically, we developed stable cell lines with HCT116 cells (human colon cancer) that carry the NF-kB-luciferase reporter gene under the regulation of NF-kB promoter activation elements. The assay was carried out as follows: • 1. HCT116 (3-3) cells were cultured in white wall 96-wells plate (50,000 cells/50 μL/well) for overnight at 37° C. • 2. […] The luciferase activity in each well was measured by using Steady-Glo® Luciferase Assay System (Promega Corp.). 48 μL of luminescence detection reagent was added in each well, followed by brief agitation. The plate was left in dark for 15 minutes and then the luminescence activity was measured by using microplate reader Victor2 (PerkinElmer Life and Analytical Science, Shelton, Conn.). • 4. Calculation:
(§2) Luciferase activity in no ligand (i.e., […]) treatment wells=background (BG)
(§3) Luciferase activity in ligand only treatment wells=positive control (PC)
(§4) Luciferase activity in Smac mimetic (SM)+ligand treatment wells=Test • i) Test<PC
(§5) Inhibitory activity by SM(%)=100×[(PC−Test)/(PC−BG)] • ii) Test>PC
(§6) Activation by SM(%)=100×[(Test−BG)/(PC−BG)]

[2] = system: MDP-mediated NF-κB-luc (NOD2); assay: MDP-stimulated NF-kB luciferase reporter gene assay (NOD2 signaling) in HCT116 cells; assay type: cell-based, human; details: for Inhibition of MDP-mediated NF-κB-luc, % Inhibition: 10 μM Smac mimetic, HCT116 cells
Protocol: as §1, §2, §3, §4, §5, §6

XIAP BIR3 = XIAP BIR3 (Homo sapiens, UniProt P98170); assay: Fluorescence polarization displacement assay, XIAP BIR3
Text: (§7) To establish protein-ligand binding affinity, we employed a fluorescence polarization assay. This assay monitored the displacement of an IAP binding motif (IBM)-containing peptide, Abu-RPFK(5-carboxyfluorescein)-NH2, from the Type III BIR domains of cIAP1, cIAP2, XIAP, and ML-IAP.

[3] = cited from earlier work
xenograft = details: cited from earlier work
cytoplasmic cIAP-2 = cytoplasmic cIAP-2 (Homo sapiens, UniProt Q13489); assay: Western blot of cytoplasmic cIAP-2 in GFP-cIAP-2 A375 cells; details: 100 nM, 0 to 240 minutes
Protocol: (§8) The stable cell lines expressing GFP-cIAP-1 or GFP-cIAP-2 were cultured in 10 cm dishes in sub-confluence overnight. […] The lysate was cleared by centrifugation (14000 rpm) at 4° C. for 10 minutes and the supernatant was subjected to the co-immunoprecipitation experiment. The protein concentration of the supernatant was measured by using Bradford reagent (Sigma). Co-immunoprecipitation was carried out with 600 μg of the total protein and 1 μg of anti-TRAF 2 antibody (Cell Signaling). After the incubation at 4° C. for overnight, 25 μL protein A/G beads (Invitrogen) was added to precipitate the immunocomplex. The beads were washed with the lysis buffer three times, followed by dissolving with 25 μL SDS-Loading buffer (Invitrogen).
(§9) The membrane was soaked with the blocking buffer (LICOR) for 30 minutes, followed by incubation with the primary antibodies, cIAP-1 and cIAP-2 (R&D Systems), at 4° C. for overnight. After the incubation, the membrane was washed three times with TBS-T buffer (Invitrogen) and incubated with IRDye anti-goat antibody (LICOR) at 37° C. for 45 minutes. Following 5 times washings, the membrane was scanned by The Odyssey Infrared Imaging System (LICOR).

TRAF2-bound cIAP-2 = TRAF2-bound cIAP-2 (Homo sapiens, UniProt Q13489); assay: Anti-TRAF2 co-immunoprecipitation and western blot of TRAF2-bound cIAP-2 in GFP-cIAP-2 A375 cells; details: 100 nM, 0 to 240 minutes
Protocol: as §8, §9

[4] = target: cIAP-1 (cytoplasmic and TRAF2-bound) (Homo sapiens, UniProt Q13490); assay: Co-immunoprecipitation and western blot, cytoplasmic versus TRAF2-bound cIAP-1 in GFP-cIAP-1 A375 cells; details: 100 nM, 0 to 240 minutes, visual
Protocol: as §8, §9

GFP-cIAP2 [5] = target: T1, GFP-cIAP2 (Homo sapiens, UniProt Q13489); assay: GFP-cIAP2 degradation assay (loss of GFP signal, flow cytometry); assay type: cell-based
T1 construct: expressed in transfected cells
Text: In this assay, treatment of GFP-cIAP-expressing melanoma cell line A375 with Smac mimetic, Compound 15, for two hours, results in degradation of cIAP-1 and cIAP-2 with concomitant loss of GFP-signal.

WT murine BMDMs = assay: IL-1β secretion from LPS-primed WT bone marrow-derived macrophages; assay type: cell-based; details: 24 h
Text: Given the heightened activity of 2 versus 1 on cIAP2, we speculated that the improved tolerability of 1 might also be associated with reduced antagonism of XIAP functional activity in this system. We thus evaluated a selection of Smac-mimetics in both LPS-primed wild-type (WT) and XIAP knockout (Xiap^−/−) murine BMDMs to assess their capacity to induce the secretion of IL-1β following treatment with Smac-mimetic (FIG. 4).
WT and Xiap^−/− BMDMs were primed with LPS±the indicated concentration of Smac-mimetics for 24 h. WT BMDM results are presented as the mean±SEM (n=3 biological independent repeats). […] Total levels of IL-1β induced by Smac-mimetics in these assays varied but the trend was identical.

Xiap−/− murine BMDMs = assay: IL-1β secretion from LPS-primed XIAP knockout bone marrow-derived macrophages; assay type: cell-based; details: 24 h
Protocol: We thus evaluated a selection of Smac-mimetics in both LPS-primed wild-type (WT) and XIAP knockout (Xiap^−/−) murine BMDMs to assess their capacity to induce the secretion of IL-1β following treatment with Smac-mimetic (FIG. 4).
WT and Xiap^−/− BMDMs were primed with LPS±the indicated concentration of Smac-mimetics for 24 h. WT BMDM results are presented as the mean±SEM (n=3 biological independent repeats).

Tolerability = details: in vivo
Text: . Binding of IAP antagonists to cIAP1 proteins induces a conformational rearrangement that exposes the RING domain. Once exposed, the RING domain dimerizes and E3 ubiquitin ligase activity is activated. Using a range of assays that evaluated cIAP1 stability; NF-κB activation; cIAP1 oligomeric state; […]. Birinapant-induced loss of cIAPs correlated with inhibition of TNF-mediated NF-κB activation, caspase activation, tumor cell killing, and tumor regression. Birinapant was well-tolerated. […]. […]; (ii.) decreased affinity for XIAP BIR3; (iii.) decreased ability to inhibit XIAP-dependent NOD signaling, despite its activity in an XIAP-dependent caspase-3 activation assay; and, (iv.) decreased pro-inflammatory IL-1β secretion. […]

GFP-cIAP2 [6] = target: T1, GFP-cIAP2; assay: GFP-cIAP2 degradation assay (loss of GFP signal, flow cytometry); assay type: cell-based; details: read-out: ΔGFP-cIAP2 EC50, 24 h
cIAP2 BIR3 = cIAP2 BIR3 (Homo sapiens, UniProt Q13489); assay: Fluorescence polarization displacement assay, cIAP2 BIR3; details: for Ki: read-out: cIAP2 BIR3, Ki
Text: as §7

[7] = read-out: ΔGFP-cIAP2 EC50, 2 h, 2 h, A375 cells

T1 sequence (Q13489 whole entry): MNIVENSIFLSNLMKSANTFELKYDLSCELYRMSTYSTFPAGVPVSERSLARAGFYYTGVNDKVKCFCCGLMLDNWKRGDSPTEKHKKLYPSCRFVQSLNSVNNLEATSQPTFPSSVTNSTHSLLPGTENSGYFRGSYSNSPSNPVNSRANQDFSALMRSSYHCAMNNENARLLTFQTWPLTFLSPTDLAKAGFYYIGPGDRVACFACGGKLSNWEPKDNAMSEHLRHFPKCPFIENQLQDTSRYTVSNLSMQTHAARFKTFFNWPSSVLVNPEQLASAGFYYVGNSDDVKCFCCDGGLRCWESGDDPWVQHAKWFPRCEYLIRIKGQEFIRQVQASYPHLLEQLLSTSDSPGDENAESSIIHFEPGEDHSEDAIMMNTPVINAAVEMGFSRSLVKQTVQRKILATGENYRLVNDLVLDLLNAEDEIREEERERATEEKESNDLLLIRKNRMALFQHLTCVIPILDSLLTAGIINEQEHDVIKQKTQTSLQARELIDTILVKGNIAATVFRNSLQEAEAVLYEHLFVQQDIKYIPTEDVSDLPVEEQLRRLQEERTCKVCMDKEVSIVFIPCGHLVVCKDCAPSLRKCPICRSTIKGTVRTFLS
Chain of cIAP2 BIR3 (Q13489 238-349 limits assumed): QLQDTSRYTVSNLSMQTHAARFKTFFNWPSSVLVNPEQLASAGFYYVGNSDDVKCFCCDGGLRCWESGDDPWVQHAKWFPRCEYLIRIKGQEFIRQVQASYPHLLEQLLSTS
Chain of TRAF2-bound cIAP-2 (Q13489 whole entry): as the sequence (Q13489 whole entry) above
Chain of TRAF2-bound cIAP-2 (Q12933 whole entry partner): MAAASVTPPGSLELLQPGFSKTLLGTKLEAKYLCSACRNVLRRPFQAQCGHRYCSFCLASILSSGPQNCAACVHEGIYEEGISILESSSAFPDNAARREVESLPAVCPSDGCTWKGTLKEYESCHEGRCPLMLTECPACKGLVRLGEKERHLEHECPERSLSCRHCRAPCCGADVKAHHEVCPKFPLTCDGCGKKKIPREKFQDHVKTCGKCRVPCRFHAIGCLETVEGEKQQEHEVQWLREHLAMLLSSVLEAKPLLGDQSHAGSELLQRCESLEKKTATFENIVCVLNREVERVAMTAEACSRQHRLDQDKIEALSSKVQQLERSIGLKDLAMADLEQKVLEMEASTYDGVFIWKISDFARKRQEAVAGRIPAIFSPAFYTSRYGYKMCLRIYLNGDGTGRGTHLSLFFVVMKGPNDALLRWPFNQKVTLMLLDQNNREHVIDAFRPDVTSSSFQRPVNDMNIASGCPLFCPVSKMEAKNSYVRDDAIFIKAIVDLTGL
Chain of cytoplasmic cIAP-2 (Q13489 whole entry): as the sequence (Q13489 whole entry) above
Chain of XIAP BIR3 (P98170 241-356 limits assumed): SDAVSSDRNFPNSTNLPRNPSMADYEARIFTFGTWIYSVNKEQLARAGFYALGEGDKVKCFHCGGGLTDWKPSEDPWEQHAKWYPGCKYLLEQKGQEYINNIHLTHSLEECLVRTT
Chain of cIAP-1 (cytoplasmic and TRAF2-bound) (Q13490 whole entry): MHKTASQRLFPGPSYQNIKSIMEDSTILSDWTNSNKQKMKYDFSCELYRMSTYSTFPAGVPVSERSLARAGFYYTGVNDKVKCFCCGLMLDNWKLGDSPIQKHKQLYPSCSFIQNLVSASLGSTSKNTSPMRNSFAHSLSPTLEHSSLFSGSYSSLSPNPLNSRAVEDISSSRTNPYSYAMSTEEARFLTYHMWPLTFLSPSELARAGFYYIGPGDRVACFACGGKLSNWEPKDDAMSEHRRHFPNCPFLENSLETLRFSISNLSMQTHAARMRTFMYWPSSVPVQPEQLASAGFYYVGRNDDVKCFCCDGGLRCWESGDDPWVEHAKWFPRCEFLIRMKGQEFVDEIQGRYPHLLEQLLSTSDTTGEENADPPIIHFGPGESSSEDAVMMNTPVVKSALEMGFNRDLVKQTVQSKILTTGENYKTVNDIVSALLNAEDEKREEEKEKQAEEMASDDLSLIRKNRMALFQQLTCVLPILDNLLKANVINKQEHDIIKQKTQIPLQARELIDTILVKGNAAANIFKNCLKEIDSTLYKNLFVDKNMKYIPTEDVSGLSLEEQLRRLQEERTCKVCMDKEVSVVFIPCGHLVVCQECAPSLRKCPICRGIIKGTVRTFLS

Kd (XIAP BIR3): < 0.001 µM
SMILES: CN[C@@H](C)C(=O)N[C@H](C(=O)N1C[C@@H](O)C[C@H]1Cc1c(Cc2[nH]c3cc(F)ccc3c2C[C@@H]2C[C@H](O)CN2C(=O)[C@@H](NC(=O)[C@H](C)NC)C(C)(C)C)[nH]c2cc(F)ccc12)C(C)(C)C [(11)]
Inhibition of DAP-mediated NF-κB-luc, % Inhibition [1]: 100 (n = 1) % | Inhibition of MDP-mediated NF-κB-luc, % Inhibition [2]: 100 (n = 2) %

Kd (XIAP BIR3; read-out: XIAP BIR3 Kd): < 0.001 µM
SMILES: CN[C@@H](C)C(=O)N[C@H](C(=O)N1C[C@@H](O)C[C@H]1Cc1c(Cc2[nH]c3cc(F)ccc3c2C[C@@H]2C[C@H](O)CN2C(=O)[C@@H](NC(=O)[C@H](C)NC)C(C)(C)C)[nH]c2cc(F)ccc12)C(C)(C)C [(12)]
Inhibition of DAP-mediated NF-κB-luc, % Inhibition [1]: 99 (+/−2) % | Inhibition of MDP-mediated NF-κB-luc, % Inhibition [2]: 98 (+/−2) %

SMILES: CN[C@@H](C)C(=O)N[C@H](C(=O)N1C[C@@H](O)C[C@H]1Cc1c(Cc2[nH]c3cc(F)ccc3c2C[C@@H]2C[C@H](O)CN2C(=O)[C@@H](NC(=O)[C@H](C)NC)C(C)(C)C)[nH]c2cc(F)ccc12)C(C)(C)C [(13)]
Inhibition of DAP-mediated NF-κB-luc, % Inhibition [1]: No inhibition | Inhibition of MDP-mediated NF-κB-luc, % Inhibition [2]: No inhibition

SMILES: CN[C@@H](C)C(=O)N[C@H](C(=O)N1C[C@@H](O)C[C@H]1Cc1c(Cc2[nH]c3cc(F)ccc3c2C[C@@H]2C[C@H](O)CN2C(=O)[C@@H](NC(=O)[C@H](C)NC)C(C)(C)C)[nH]c2cc(F)ccc12)C(C)(C)C [(14)]
Inhibition of DAP-mediated NF-κB-luc, % Inhibition [1]: 74 (+/−14) % | Inhibition of MDP-mediated NF-κB-luc, % Inhibition [2]: 86 (+/−9) %

SMILES: CN[C@@H](C)C(=O)N[C@H](C(=O)N1C[C@@H](O)C[C@H]1Cc1c(-c2[nH]c3cc(F)ccc3c2C[C@@H]2C[C@H](O)CN2C(=O)[C@@H](NC(=O)[C@H](C)NC)[C@@H](C)OC)[nH]c2cc(F)ccc12)[C@@H](C)OC [Compound 5]
tolerability in rats compared to Compound 15 [3]: less well-tolerated | antitumor activity compared to Compound 15 (xenograft): comparable antitumor activity | degradation of cytoplasmic cIAP-2 (cytoplasmic cIAP-2): degraded | degradation of TRAF2-bound cIAP-2 (TRAF2-bound cIAP-2): degraded | extent of degradation of cytoplasmic cIAP-1 versus cIAP-1 bound to TRAF2 [4]: approximately the same

SMILES: CC[C@H](NC(=O)[C@H](C)NC)C(=O)N1C[C@@H](O)C[C@H]1Cc1c(-c2[nH]c3cc(F)ccc3c2C[C@@H]2C[C@H](O)CN2C(=O)[C@H](CC)NC(=O)[C@H](C)NC)[nH]c2cc(F)ccc12 [birinapant (1), birinapant]
EC50 (GFP-cIAP2 [5]; [7]): 0.108 ± 0.046 µM | Inhibition of DAP-mediated NF-κB-luc, % Inhibition ([1]; listed as 1): ca. 35% | Inhibition of DAP-mediated NF-κB-luc, % Inhibition ([1]; listed as Birinapant (1)): 35 (+/−16) % | Inhibition of DAP-mediated NF-KB-luc @ 2 h, % Inhibition ([1]; @ 2 h): 35 ± 16% | Inhibition of MDP-mediated NF-κB-luc, % Inhibition ([2]; listed as 1): ca. 35% | Inhibition of MDP-mediated NF-κB-luc, % Inhibition ([2]; listed as Birinapant (1)): 35 (+/−14) % | Inhibition of MDP-mediated NF-KB-luc @ 2 h, % Inhibition [2]: 35 ± 14% | IL-1β secretion from LPS-primed WT BMDMs (WT murine BMDMs): no increase in IL-1β secretion | IL-1β secretion in Xiap−/− BMDMs (Xiap−/− murine BMDMs): induced IL-1β secretion | tolerability (Tolerability): well-tolerated | EC50 (TNF-mediated NF-κB-luc): 0.009 ± 0.005 µM | EC50 (GFP-cIAP2 [6]): 0.151 ± 0.086 µM | reduction of affinity for cIAP2 BIR3 compared with Compound A (cIAP2 BIR3): approximately 40 fold | Ki (cIAP2 BIR3): 0.036 µM | Ki (cIAP2 BIR3; listed as Birinapant): ~0.036 µM | degradation of cytoplasmic cIAP-2 (cytoplasmic cIAP-2): substantially non-degraded | degradation of TRAF2-bound cIAP-2 (TRAF2-bound cIAP-2): degraded

SMILES: CC[C@H](NC(=O)[C@H](C)NC)C(=O)N1C[C@@H](O)C[C@H]1Cc1c(-c2[nH]c3cc(F)ccc3c2C[C@@H]2C[C@H](O)CN2C(=O)[C@@H](CC)NC(=O)[C@H](C)NC)[nH]c2cc(F)ccc12 [compound 3]
reduced ability to degrade GFP-cIAP2 relative to 1 (GFP-cIAP2 [5]): 100 fold | DC50 (GFP-cIAP2 [5]; [7]): > 10 µM | Inhibition of MDP-mediated NF-KB-luc @ 2 h, % Inhibition [2]: No | EC50 (TNF-mediated NF-κB-luc): 1.73 ± 0.985 µM | DC50 (GFP-cIAP2 [6]): 4.93 ± 1.6 µM

DC50 (GFP-cIAP2 [5]; [7]): 5.72 ± 0.157 µM | EC50 (TNF-mediated NF-κB-luc): 4.98 ± 0.996 µM | DC50 (GFP-cIAP2 [6]): 5.54 ± 0.115 µM
SMILES: CC[C@@H](NC(=O)[C@H](C)NC)C(=O)N1C[C@@H](O)C[C@H]1Cc1c(-c2[nH]c3cc(F)ccc3c2C[C@@H]2C[C@H](O)CN2C(=O)[C@@H](CC)NC(=O)[C@H](C)NC)[nH]c2cc(F)ccc12 [compound 4]

DC50 (GFP-cIAP2 [5]; [7]): > 10 µM | EC50 (TNF-mediated NF-κB-luc): > 10 µM | DC50 (GFP-cIAP2 [6]): > 10 µM
SMILES: CC[C@@H](NC(=O)[C@@H](C)NC)C(=O)N1C[C@H](O)C[C@@H]1Cc1c(-c2[nH]c3cc(F)ccc3c2C[C@H]2C[C@@H](O)CN2C(=O)[C@@H](CC)NC(=O)[C@@H](C)NC)[nH]c2cc(F)ccc12 [compound 5, ent-birinapant]
